In PubChem BioAssay AID330 (DTP/NCI, 2004):
Where “and” joins values, the source holds several entries; their conditions need not be identical. Equal entries are not always repeated. Toxic doses and inconclusive results are not listed. Peptide text beside a SMILES is read from it. * marks the point of attachment. Cbz = O=C(OCc1ccccc1)*; CH2Cl = ClC*

Tested on: P388 leukemia ip, CD2F1 mice, survival T/C
Experiment: NCI In Vivo Anticancer Drug Screen. Data for tumor model P388 Leukemia (intraperitoneal) in CD2F1 (CDF1) mice
Details: endpoint: median survival time, higher = longer survival
Method in brief: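 Mice carrying the transplanted tumor received test compound or vehicle. Survival was recorded in each group, and the value is the treated-group measurement divided by that of the vehicle-treated control group.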

[1] = dose: 12.5 mg/kg/injection, schedule: Q01DX009 (ip), vehicle: distilled water + Tween-80
[2] = dose: 25.0 mg/kg/injection, schedule: Q01DX009 (ip), vehicle: distilled water + Tween-80
[3] = dose: 50.0 mg/kg/injection, schedule: Q01DX009 (ip), vehicle: distilled water + Tween-80
[4] = dose: 100.0 mg/kg/injection, schedule: Q01DX009 (ip), vehicle: distilled water + Tween-80
[5] = dose: 50.0 mg/kg/injection, schedule: Q01DX009 (ip), vehicle: saline with Tween-80
[6] = dose: 100.0 mg/kg/injection, schedule: Q01DX009 (ip), vehicle: saline with Tween-80
[7] = dose: 50.0 mg/kg/injection, schedule: Q01DX009 (ip), vehicle: saline
[8] = dose: 100.0 mg/kg/injection, schedule: Q01DX009 (ip), vehicle: saline
[9] = dose: 200.0 mg/kg/injection, schedule: Q01DX009 (ip), vehicle: saline
[10] = dose: 400.0 mg/kg/injection, schedule: Q01DX009 (ip), vehicle: saline with Tween-80
[11] = dose: 50.0 mg/kg/injection, schedule: Q01DX009 (ip), vehicle: suspension in saline
[12] = dose: 100.0 mg/kg/injection, schedule: Q01DX009 (ip), vehicle: suspension in saline
[13] = dose: 200.0 mg/kg/injection, schedule: Q01DX009 (ip), vehicle: suspension in saline
[14] = dose: 25.0 mg/kg/injection, schedule: Q01DX009 (ip), vehicle: saline
[15] = dose: 12.5 mg/kg/injection, schedule: Q01DX009 (ip), vehicle: saline with Tween-80
[16] = dose: 25.0 mg/kg/injection, schedule: Q01DX009 (ip), vehicle: saline with Tween-80
[17] = dose: 50.0 mg/kg/injection, schedule: Q01DX005 (ip), vehicle: saline with Tween-80
[18] = dose: 100.0 mg/kg/injection, schedule: Q01DX005 (ip), vehicle: saline with Tween-80
[19] = dose: 200.0 mg/kg/injection, schedule: Q01DX005 (ip), vehicle: saline with Tween-80
[20] = dose: 50.0 mg/kg/injection, schedule: Q01DX005 (ip), vehicle: Klucel (hydroxypropylcellulose) (HPC)
[21] = dose: 100.0 mg/kg/injection, schedule: Q01DX005 (ip), vehicle: Klucel (hydroxypropylcellulose) (HPC)
[22] = dose: 200.0 mg/kg/injection, schedule: Q01DX005 (ip), vehicle: Klucel (hydroxypropylcellulose) (HPC)

SMILES: CC(=O)OCC1OC(n2cc(CI)nn2)C(OC(C)=O)C(OC(C)=O)C1OC(C)=O (configuration not stated)
- T/C (dose: 6.25 mg/kg/injection, schedule: Q01DX009 (ip), vehicle: distilled water + Tween-80): 102 % of control and 103 % of control
- T/C [1]: 103 % of control and 96 % of control
- T/C [2]: 111 % of control and 115 % of control
- T/C [3]: 102 % of control and 115 % of control
- T/C [4]: 115 % of control

SMILES: Cc1cccc(C)c1NC1c2ccccc2C=Cc2ccccc21
- T/C [5]: 87 % of control
- T/C [6]: 89 % of control

SMILES: N#CCCOCC(COCCC#N)OCCC#N
- T/C [7]: 105 % of control
- T/C [8]: 92 % of control
- T/C [9]: 102 % of control

SMILES: C=C1CC(C)(Cl)C(Cl)CC1/C=C/Cl (configuration not stated)
- T/C (dose: 1.87 mg/kg/injection, schedule: Q01DX009 (ip), vehicle: saline + alcohol): 100 % of control
- T/C (dose: 3.75 mg/kg/injection, schedule: Q01DX009 (ip), vehicle: saline + alcohol): 99 % of control
- T/C (dose: 7.5 mg/kg/injection, schedule: Q01DX009 (ip), vehicle: saline + alcohol): 103 % of control
- T/C (dose: 15.0 mg/kg/injection, schedule: Q01DX009 (ip), vehicle: saline + alcohol): 100 % of control

SMILES: CCN1/C(=C/C=C/C=C/c2sc3ccccc3[n+]2CC)Sc2ccccc21
- T/C (dose: 0.05 mg/kg/injection, schedule: Q01DX009 (ip), vehicle: saline): 123 % of control
- T/C (dose: 0.06 mg/kg/injection, schedule: Q01DX009 (ip), vehicle: saline): 124 % of control
- T/C (dose: 0.08 mg/kg/injection, schedule: Q01DX009 (ip), vehicle: saline): 107 % of control
- T/C (dose: 0.12 mg/kg/injection, schedule: Q01DX009 (ip), vehicle: saline): 117 % of control and 122 % of control
- T/C (dose: 0.25 mg/kg/injection, schedule: Q01DX009 (ip), vehicle: saline): 123 % of control
- T/C (dose: 0.28 mg/kg/injection, schedule: Q01DX009 (ip), vehicle: saline): 123 % of control

SMILES: C=C(C(=O)OC)C1C=CCC1 (configuration not stated)
- T/C [1]: 100 % of control
- T/C [2]: 100 % of control
- T/C [3]: 111 % of control
- T/C [4]: 101 % of control
- T/C (dose: 200.0 mg/kg/injection, schedule: Q01DX009 (ip), vehicle: distilled water + Tween-80): 86 % of control

SMILES: Cc1cnc(NS(=O)(=O)c2ccc(N)cc2)nc1-c1ccccc1O
- T/C (dose: 60.0 mg/kg/injection, schedule: Q01DX005 (ip), vehicle: saline with Tween-80): 100 % of control
- T/C (dose: 120.0 mg/kg/injection, schedule: Q01DX005 (ip), vehicle: saline with Tween-80): 93 % of control
- T/C (dose: 240.0 mg/kg/injection, schedule: Q01DX005 (ip), vehicle: saline with Tween-80): 86 % of control

SMILES: Brc1ccc(-c2csc(Nc3nc(-c4ccc(Br)cc4)cs3)n2)cc1
- T/C [6]: 95 % of control
- T/C (dose: 200.0 mg/kg/injection, schedule: Q01DX009 (ip), vehicle: saline with Tween-80): 100 % of control
- T/C [10]: 104 % of control

SMILES: COC(CNCc1ccccc1)OC
- T/C (dose: 37.5 mg/kg/injection, schedule: Q04DX003 (ip), vehicle: saline): 98 % of control
- T/C (dose: 75.0 mg/kg/injection, schedule: Q04DX003 (ip), vehicle: saline): 104 % of control
- T/C (dose: 150.0 mg/kg/injection, schedule: Q04DX003 (ip), vehicle: saline): 95 % of control
- T/C (dose: 300.0 mg/kg/injection, schedule: Q04DX003 (ip), vehicle: saline): 98 % of control

SMILES: NC(CCCCNC(=O)CCCCCCCCC(=O)NCCCCC(N)C(=O)O)C(=O)O (configuration not stated)
- T/C [11]: 95 % of control
- T/C [12]: 105 % of control
- T/C [13]: 100 % of control

SMILES: CC(C)CC(NC(=O)OCc1ccccc1)C(=O)NC(Cc1ccccc1)C(=O)CCl (stereo not drawn) (Cbz-Leu-Phe-CH2Cl; configuration not given here)
- T/C (dose: 6.25 mg/kg/injection, schedule: Q01DX009 (ip), vehicle: saline): 107 % of control
- T/C (dose: 12.5 mg/kg/injection, schedule: Q01DX009 (ip), vehicle: saline): 106 % of control
- T/C [14]: 111 % of control
- T/C [7]: 113 % of control
- T/C [8]: 120 % of control

SMILES: O=[N+]([O-])c1ccc(Sc2nc3ccccc3[nH]2)nc1
- T/C [11]: 100 % of control
- T/C [12]: 100 % of control
- T/C [13]: 99 % of control

SMILES: O=C1c2ccccc2C(=O)c2c1oc1c2ccc2ccccc21
- T/C [15]: 98 % of control
- T/C [16]: 92 % of control
- T/C [5]: 99 % of control
- T/C [6]: 87 % of control

SMILES: C=C1C(=O)O[C@@H]2C[C@@H](C)[C@@H]3[C@@H](OC(C)=O)[C@@H](OC(C)=O)[C@H](OC(C)=O)[C@@]3(C)C[C@H]12
- T/C (dose: 9.5 mg/kg/injection, schedule: Q01DX005 (ip), vehicle: Klucel (hydroxypropylcellulose) (HPC)): 102 % of control
- T/C (dose: 19.0 mg/kg/injection, schedule: Q01DX005 (ip), vehicle: Klucel (hydroxypropylcellulose) (HPC)): 100 % of control
- T/C (dose: 38.0 mg/kg/injection, schedule: Q01DX005 (ip), vehicle: Klucel (hydroxypropylcellulose) (HPC)): 106 % of control
- T/C (dose: 76.0 mg/kg/injection, schedule: Q01DX005 (ip), vehicle: Klucel (hydroxypropylcellulose) (HPC)): 97 % of control

SMILES: Nc1nc(N)nc(N/C=C/C(=O)O)n1
- T/C (dose: 50.0 mg/kg/injection, schedule: Q01DX005 (ip), vehicle: water): 99 % of control
- T/C (dose: 100.0 mg/kg/injection, schedule: Q01DX005 (ip), vehicle: water): 105 % of control
- T/C (dose: 200.0 mg/kg/injection, schedule: Q01DX005 (ip), vehicle: water): 106 % of control

SMILES: O=C1c2cccc3cccc(c23)C(=O)N1CCO
- T/C [17]: 104 % of control
- T/C [18]: 96 % of control
- T/C [19]: 100 % of control

SMILES: CC(C)CCC(NS(=O)(=O)c1cc(I)c(N)c(I)c1)C(=O)O (configuration not stated)
- T/C [17]: 99 % of control
- T/C [18]: 96 % of control
- T/C [19]: 103 % of control

SMILES: CC(C)CC(NC(=O)OC(C)(C)C)C(=O)NC(Cc1c[nH]c2ccccc12)C(=O)NN (configuration not stated)
- T/C [14]: 87 % of control
- T/C [7]: 94 % of control
- T/C [8]: 92 % of control
- T/C [9]: 92 % of control

SMILES: CCOC(=O)c1ccc2cc(C)c3ccc(N)nc3n2c1=O
- T/C (dose: 25.0 mg/kg/injection, schedule: Q01DX005 (ip), vehicle: saline with Tween-80): 93 % of control
- T/C [17]: 98 % of control
- T/C [18]: 92 % of control and 93 % of control
- T/C [19]: 88 % of control

SMILES: C/C=C1/C[N+]2(C)CCc3c([nH]c4ccccc34)C2CC1C(CO)C(=O)OC (configuration not stated)
- T/C [15]: 96 % of control
- T/C [16]: 104 % of control
- T/C [5]: 98 % of control

SMILES: COc1ccccc1C(O)(c1ccccc1OC)C1(O)CCN(C)CC1
- T/C [20]: 94 % of control
- T/C [21]: 95 % of control

SMILES: NCCc1c[nH]c2ccc(OCc3ccccc3)cc12
- T/C (dose: 50.0 mg/kg/injection, schedule: Q04DX003 (ip), vehicle: saline): 109 % of control
- T/C (dose: 100.0 mg/kg/injection, schedule: Q04DX003 (ip), vehicle: saline): 116 % of control

SMILES: CCN(CC)CCN1C(=O)CN=C(c2ccc[nH]2)c2cc(Cl)ccc21
- T/C [6]: 90 % of control
- T/C (dose: 100.0 mg/kg/injection, schedule: Q04DX003 (ip), vehicle: saline with Tween-80): 100 % of control
- T/C (dose: 200.0 mg/kg/injection, schedule: Q04DX003 (ip), vehicle: saline with Tween-80): 100 % of control
- T/C [10]: 95 % of control
- T/C (dose: 400.0 mg/kg/injection, schedule: Q04DX003 (ip), vehicle: saline with Tween-80): 95 % of control

SMILES: NC(=S)N/N=C/c1ccc(OC(=O)COc2ccccc2)cn1
- T/C [16]: 171 % of control
- T/C [5]: 205 % of control
- T/C [6]: 205 % of control

SMILES: O=C1OC(=O)C2C3C=CC(C4C=C(c5ccccc5)C43)C12 (configuration not stated)
- T/C [7]: 106 % of control
- T/C [8]: 92 % of control
- T/C [9]: 107 % of control

SMILES: O=C1c2ccccc2C(=O)N1OCc1cccc(C(F)(F)F)c1
- T/C [20]: 98 % of control
- T/C [21]: 90 % of control
- T/C [22]: 86 % of control

SMILES: Cc1noc(NS(=O)(=O)c2ccc(N=Nc3cc(N=Nc4ccc(S(=O)(=O)Nc5onc(C)c5C)cc4)c4c(NC(=O)C(Cl)Cl)cccc4c3OC(=O)C(Cl)Cl)cc2)c1C
- T/C [5]: 94 % of control
- T/C [6]: 100 % of control

SMILES: O=c1c2ccccc2c(=O)n2n1C1CCC2C1
- T/C [20]: 96 % of control
- T/C [21]: 110 % of control
- T/C [22]: 100 % of control
